Measurements as given in patent US20210255184A1, “Biosensor Device and Methods” (The New Zealand Institute for Plant and Food Research …, priority 2018, published 2021).

Molecular target: T1, Or22a/Orco (Drosophila melanogaster, UniProt P81909)
T1 construct: his-tag; made in house; host or cells: baculovirus-infected Sf9 cells
T1 sequence (P81909 1-397): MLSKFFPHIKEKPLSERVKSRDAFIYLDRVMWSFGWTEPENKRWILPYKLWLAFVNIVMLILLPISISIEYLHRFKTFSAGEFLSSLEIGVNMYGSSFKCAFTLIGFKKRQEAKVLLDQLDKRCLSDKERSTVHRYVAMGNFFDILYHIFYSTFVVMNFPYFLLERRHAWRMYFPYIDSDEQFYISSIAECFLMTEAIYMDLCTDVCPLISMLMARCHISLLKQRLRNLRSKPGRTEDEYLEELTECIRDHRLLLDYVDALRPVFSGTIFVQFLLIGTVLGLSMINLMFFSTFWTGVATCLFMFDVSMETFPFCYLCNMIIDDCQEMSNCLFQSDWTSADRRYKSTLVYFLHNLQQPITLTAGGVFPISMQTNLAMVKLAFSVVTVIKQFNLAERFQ
T1 sequence (Q9VNB5 1-486 partner): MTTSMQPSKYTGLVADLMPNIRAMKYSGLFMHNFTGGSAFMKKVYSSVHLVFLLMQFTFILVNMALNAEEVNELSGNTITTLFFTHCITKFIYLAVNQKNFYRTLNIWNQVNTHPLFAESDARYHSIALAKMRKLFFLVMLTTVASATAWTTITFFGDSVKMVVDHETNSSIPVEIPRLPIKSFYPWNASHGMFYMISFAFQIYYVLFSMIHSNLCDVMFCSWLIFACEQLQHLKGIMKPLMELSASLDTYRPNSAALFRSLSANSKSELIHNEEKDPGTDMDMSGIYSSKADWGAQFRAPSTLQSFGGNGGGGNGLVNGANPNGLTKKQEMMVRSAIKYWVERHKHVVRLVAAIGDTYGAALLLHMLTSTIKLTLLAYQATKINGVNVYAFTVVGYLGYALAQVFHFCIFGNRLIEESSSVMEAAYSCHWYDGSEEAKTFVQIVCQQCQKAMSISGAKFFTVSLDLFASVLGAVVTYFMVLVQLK
Assay: Droplet interface bilayer ion channel recording, Or22a/Orco
Assay type: biochemical
Details: DIB, 10 μM ligand, at +/−100 mV, +/−50 mV and −25 mV
Protocol: Bilayers were formed between two droplets formed within a PMMA chamber filled with 1 mg/ml DPhPC in undecane and AR20 silicone oil (1:1 ratio). The first step in this process was to deposit a 50 nl droplet onto the stationary silver electrode positioned at the base of the well; this droplet consisted of an aqueous solution containing 300 mM NaCl, 10 mM HEPES (pH 7.4), containing the odorant receptor proteins in proteoliposomes (at a 1:20 dilution from the proteoliposome preparation), […] The second droplet was mounted onto a second silver electrode which was held in the oil and lipid mixture using a YOU-3 manipulator (Narishige, Japan). […] Once the droplets were in contact a bilayer formed spontaneously within 1 minute (as determined by visual assessment and an increase in the bilayer capacitance as measured with a capacitance voltage protocol using the Pico2 amplifier). Insertion of an active channel was determined by a change in current while clamping the voltage at 50 mV. […]
Currents were recorded with a Pico2 or an eONE-HS amplifier (Tecella, USA and Elements, Italy, respectively) with built-in digitizers, operating in gap-free acquisition mode at a sampling frequency of 20 kHz, and using a 0.8 or 1.5 kHz low pass filter. […]
Data were analysed using ANA (Dr Pusch, Genoa), EDR (Elements, Italy) and WinWCP (Dr Dempster, University of Strathclyde). […]

CCCCCC(=O)OC [methyl hexanoate]
ion channel activity: ion channel activity is observed
